# Measured values as given in patent publication US20230026696A1, “TRPV4 RECEPTOR LIGANDS” (UNIVERSITY OF UTAH RESEARCH FOUNDATION, priority 2019, published 2023).
# Structures can show the parent of a compound that is named as a salt.
# Molecular target: T1, human TRPV4 (Homo sapiens, UniProt Q9HBA0)
# T1 construct: expressed in transfected cells
# Test: Fluorometric cell-based Ca2+ flux assay, HEK-293 cells stably overexpressing human TRPV4
# Settings: HEK-293 stably overexpressing human TRPV4; agonist GSK1016790A 30 nM
# Method: Fluorometric cell-based Ca^2+ flux assays were performed to assess TRPV4 antagonist activity and determine potency (IC50 values) in human embryonic kidney-293 cells (HEK-293) that stably overexpress human TRPV4. The assays were performed according to methods described in: Deering-Rice, C. E., Johansen, M. E., Roberts, J. K., Thomas, K. C., Romero, E. G., Lee, J., Yost, G. S., Veranth, J. M., and Reilly, C. A. (2012), Mol. Pharmacol. 81(3), 411-419; Shapiro, D., Deering-Rice, C. E., Romero, E. G., Hughen, R. W., Light, A. R., Veranth, J. M., and Reilly, C. A. (2013), Chem Res. Toxicol., 26, 750-758; and Deering-Rice, C. E., Mitchell, V. K., Romero, E. G., Abdel Aziz, M. H., and Reilly, C. A. (2014), Pharmacol. Res. & Perspectives. 2(5), 1-10.
# The HEK-293 cells stably overexpressing human TRPV4 were grown to confluence in 2% (w/v) gelatin-coated 96-well plates in DMEM:F12 media supplemented with 5% fetal bovine serum, 1× penicillin/streptomycin (Invitrogen) and Geneticin (300 μg/mL).
# The HEK-293 cells were prepared for assay by replacing the growth media with a 1:1 solution of LHC-9 and Fluo 4-Direct (Invitrogen) reagent containing Fluo 4-AM, pluronic F-127, probenecid, and a proprietary quencher dye. The cells were then incubated at 37° C. for 1 h in a cell culture incubator. The cells were subsequently washed by replacing the loading solution with LHC-9 containing 1 mM water-soluble probenecid (Invitrogen), 750 μM Trypan Red (ATT Bioquest), and a test compound (at various concentrations). The cells were incubated for an additional 30 minutes at 37° C. to allow for Fluo 4-AM cleavage and activation, as well as equilibration to both the test compounds and Fluo 4.
# An agonist treatment solution (90 nM GSK1016790A, a potent activator of TRPV4) was prepared in LHC9 at 3× concentration and 25 μL was added to 50 μL of media on the cells in 96 well plates, providing a final concentration of 30 nM. Changes in cellular fluorescence were monitored with a BMG Labtech NOVOStar fluorescence plate reader for 1 minute at 37° C. Data were quantified as the maximum rate of change in fluorescence intensity (max ΔF/s), corrected for media only treatment (negative control), and represented as the percentage of response relative to the no antagonist control. A minimum of three replicates were used for each treatment condition, with a minimum of 8 concentrations to derive the IC50 values reported for each antagonist. The IC50 values for each antagonist, which are shown in Table 4 below, were calculated according to methods described in the assays were performed according to methods described in: Deering-Rice, C. E., Johansen, M. E., Roberts, J. K., Thomas, K. C., Romero, E. G., Lee, J., Yost, G. S., Veranth, J. M., and Reilly, C. A. (2012), Mol. Pharmacol. 81(3), 411-419; Shapiro, D., Deering-Rice, C. E., Romero, E. G., Hughen, R. W., Light, A. R., Veranth, J. M., and Reilly, C. A. (2013), Chem Res. Toxicol., 26, 750-758; and Deering-Rice, C. E., Mitchell, V. K., Romero, E. G., Abdel Aziz, M. H., and Reilly, C. A. (2014), Pharmacol. Res. & Perspectives. 2(5), 1-10.
# T1 sequence (Q9HBA0 whole entry): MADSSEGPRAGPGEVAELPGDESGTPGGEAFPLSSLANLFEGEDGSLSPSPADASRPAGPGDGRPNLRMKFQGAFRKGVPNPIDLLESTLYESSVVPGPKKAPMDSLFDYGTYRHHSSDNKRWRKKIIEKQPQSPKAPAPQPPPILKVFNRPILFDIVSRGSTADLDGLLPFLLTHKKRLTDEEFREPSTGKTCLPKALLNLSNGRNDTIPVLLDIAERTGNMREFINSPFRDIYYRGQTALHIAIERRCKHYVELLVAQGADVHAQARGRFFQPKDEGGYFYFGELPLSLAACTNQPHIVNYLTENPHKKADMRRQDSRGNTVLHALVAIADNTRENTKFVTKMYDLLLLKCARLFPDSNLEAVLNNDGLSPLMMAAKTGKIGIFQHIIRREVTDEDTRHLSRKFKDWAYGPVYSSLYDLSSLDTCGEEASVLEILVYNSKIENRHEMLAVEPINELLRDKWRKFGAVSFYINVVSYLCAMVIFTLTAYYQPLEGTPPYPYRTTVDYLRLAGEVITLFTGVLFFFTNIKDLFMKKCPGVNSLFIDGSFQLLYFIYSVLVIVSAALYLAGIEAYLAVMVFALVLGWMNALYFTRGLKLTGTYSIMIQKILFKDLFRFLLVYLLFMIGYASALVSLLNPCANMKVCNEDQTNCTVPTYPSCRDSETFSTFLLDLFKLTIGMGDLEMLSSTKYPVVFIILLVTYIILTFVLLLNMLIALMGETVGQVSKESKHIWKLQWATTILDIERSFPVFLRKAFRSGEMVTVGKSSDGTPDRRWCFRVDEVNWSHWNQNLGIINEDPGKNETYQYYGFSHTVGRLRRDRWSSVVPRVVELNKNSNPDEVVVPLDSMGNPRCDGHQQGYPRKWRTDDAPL
row,Compound,IC50 [µM]
1,"N#Cc1ccc(OCC2(CNC(=O)CO)CN(S(=O)(=O)c3ccc(Cl)cc3Cl)C2)cc1F [Compound 47, N-((3-((4-Cyano-3-fluorophenoxy)methyl)-1-((2,4-dichlorophenyl)sulfonyl)azetidin-3-yl)methyl)-2-hydroxyacetamide]",0.348
2,"Cc1ccc(S(=O)(=O)N2CC(CO)(COc3ccc(C#N)c(F)c3)C2)c(C)c1 [Compound 62, 4-((1-((2,4-Dimethylphenyl)sulfonyl)-3-(hydroxymethyl)azetidin-3-yl)methoxy)-2-fluorobenzonitrile]",0.472
3,"COC(=O)c1ccc(S(=O)(=O)N2CC(CO)(COc3ccc(C#N)c(F)c3)C2)c(Cl)c1 [Compound 80, Methyl 3-chloro-4-((3-((4-cyano-3-fluorophenoxy)methyl)-3-(hydroxymethyl)azetidin-1-yl)sulfonyl)benzoate]",> 0.85
4,"N#Cc1ccc(OCC2(CNCC(O)CO)CN(S(=O)(=O)c3ccc(Cl)cc3Cl)C2)cc1F (stereo not drawn) [Compound 33, 4-((1-((2,4-Dichlorophenyl)sulfonyl)-3-(((2,3-dihydroxypropyl)amino)methyl)azetidin-3-yl)methoxy)-2-fluorobenzonitrile hydrochloride]",0.0003
5,"N#Cc1ccc(OCC2(CNC3COC3)CN(S(=O)(=O)c3ccccc3C#N)C2)cc1F [Compound 111, 4-((1-((2-Cyanophenyl)sulfonyl)-3-((oxetan-3-ylamino)methyl)azetidin-3-yl)methoxy)-2-fluorobenzonitrile]",0.0476
6,"Cc1ccc(S(=O)(=O)N2CC(CO)(COc3ccc(C#N)c(F)c3)C2)c(C#N)c1 [Compound 103, 4-((1-((2-Cyano-4-methylphenyl)sulfonyl)-3-(hydroxymethyl)azetidin-3-yl)methoxy)-2-fluorobenzonitrile]",0.0147
7,"N#Cc1ccc(OCC2(CN[C@H]3CC[C@H](O)CC3)CN(S(=O)(=O)c3ccccc3C#N)C2)cc1F [Compound 112, 4-((1-((2-Cyanophenyl)sulfonyl)-3-(((trans-4-hydroxycyclohexyl)amino)methyl)azetidin-3-yl)methoxy)-2-fluorobenzonitrile]",0.00029
8,"N#Cc1ccc(OCC2(CN[C@H]3C[C@H](O)C3)CN(S(=O)(=O)c3ccccc3C#N)C2)cc1F [Compound 113, 4-((1-((2-Cyanophenyl)sulfonyl)-3-(((trans-3-hydroxycyclobutyl)amino)methyl)azetidin-3-yl)methoxy)-2-fluorobenzonitrile]",0.00079
9,"N#Cc1ccc(OCC2(CO)CN(S(=O)(=O)c3c(Cl)cccc3Cl)C2)cc1F [Compound 75, 4-((1-((2,6-Dichlorophenyl)sulfonyl)-3-(hydroxymethyl)azetidin-3-yl)methoxy)-2-fluorobenzonitrile]",> 1.3
10,"CC(O)CCNCC1(COc2ccc(C#N)c(F)c2)CN(S(=O)(=O)c2ccc(Cl)cc2Cl)C1 (stereo not drawn) [Compound 35, 4-((1-((2,4-dichlorophenyl)sulfonyl)-3-(((3-hydroxybutyl)amino)methyl)azetidin-3-yl)methoxy)-2-fluorobenzonitrile hydrochloride]",0.0007

# Results, then the compound that gave them:
row,IC50 [µM],Compound
1,0.117,"N#Cc1ccc(OCC2(CNCc3nccs3)CN(S(=O)(=O)c3ccc(Cl)cc3Cl)C2)cc1F [Compound 22, 4-((1-((2,4-dichlorophenyl)sulfonyl)-3-(((thiazol-2-ylmethyl)amino)methyl)azetidin-3-yl)methoxy)-2-fluorobenzonitrile hydrochloride]"
2,0.00041,"N#Cc1ccc(OCC2(CNC3CCOCC3)CN(S(=O)(=O)c3ccccc3C#N)C2)cc1F [Compound 116, 4-((1-((2-Cyanophenyl)sulfonyl)-3-(((tetrahydro-2H-pyran-4-yl)amino)methyl)azetidin-3-yl)methoxy)-2-fluorobenzonitrile]"
3,3.35,"CC(C)(C)OC(=O)NC1(COc2ccc(C#N)c(F)c2)CN(S(=O)(=O)c2ccc(Cl)cc2Cl)C1 [Compound 51, tert-Butyl (3-((4-cyano-3-fluorophenoxy)methyl)-1-((2,4-dichlorophenyl)sulfonyl)azetidin-3-yl)carbamate]"
4,0.0013,"N#Cc1ccc(OCC2(CN[C@H]3CC[C@@H](O)CC3)CN(S(=O)(=O)c3ccc(Cl)cc3Cl)C2)cc1F [Compound 39, 4-((1-((2,4-Dichlorophenyl)sulfonyl)-3-((((cis)-4-hydroxycyclohexyl)amino)methyl)azetidin-3-yl)methoxy)-2-fluorobenzonitrile hydrochloride]"
5,0.52,"Cc1cc(Cl)ccc1S(=O)(=O)N1CC(CO)(COc2ccc(C#N)c(F)c2)C1 [Compound 74, 4-((1-((4-Chloro-2-methylphenyl)sulfonyl)-3-(hydroxymethyl)azetidin-3-yl)methoxy)-2-fluorobenzonitrile]"
6,0.0002,"CC(CO)CNCC1(COc2ccc(C#N)c(F)c2)CN(S(=O)(=O)c2ccc(Cl)cc2Cl)C1 (stereo not drawn) [Compound 34, 4-((1-((2,4-Dichlorophenyl)sulfonyl)-3-(((3-hydroxy-2-methylpropyl)amino)methyl)azetidin-3-yl)methoxy)-2-fluorobenzonitrile hydrochloride]"
7,> 2.5,"Cc1cc(F)ccc1S(=O)(=O)N1CC(CO)(COc2ccc(C#N)c(F)c2)C1 [Compound 77, 2-Fluoro-4-((1-((4-fluoro-2-methylphenyl)sulfonyl)-3-(hydroxymethyl)azetidin-3-yl)methoxy)benzonitrile]"
8,0.005,"N#Cc1ccc(OCC2(CO)CN(S(=O)(=O)c3ccc(Cl)cc3C#N)C2)cc1F [Compound 81, 4-((1-((4-Chloro-2-cyanophenyl)sulfonyl)-3-(hydroxymethyl)azetidin-3-yl)methoxy)-2-fluorobenzonitrile]"
9,0.11,"N#Cc1ccc(OCC2(CNS(=O)(=O)CCN)CN(S(=O)(=O)c3ccc(Cl)cc3Cl)C2)cc1F [Compound 49, 2-Amino-N-((3-((4-cyano-3-fluorophenoxy)methyl)-1-((2,4-dichlorophenyl)sulfonyl)azetidin-3-yl)methyl)ethane-1-sulfonamide]"
10,0.0033,"CCOC(=O)CCNCC1(COc2ccc(C#N)c(F)c2)CN(S(=O)(=O)c2ccc(Cl)cc2Cl)C1 [Compound 37, Ethyl 3-(((3-((4-Cyano-3-fluorophenoxy)methyl)-1-((2,4-dichlorophenyl)sulfonyl)azetidin-3-yl)methyl)amino)propanoate hydrochloride]"
11,0.0018,"N#Cc1ccc(OCC2(CN[C@H]3C[C@@H](O)C3)CN(S(=O)(=O)c3ccc(Cl)cc3Cl)C2)cc1F [Compound 38, 4-((1-((2,4-Dichlorophenyl)sulfonyl)-3-((((cis)-3-hydroxycyclobutyl)amino)methyl)azetidin-3-yl)methoxy)-2-fluorobenzonitrile hydrochloride]"
12,0.0293,"N#Cc1ccc(OCC2(CO)CN(S(=O)(=O)c3ccc(F)cc3C#N)C2)cc1F [Compound 104, 4-((1-((2-Cyano-4-fluorophenyl)sulfonyl)-3-(hydroxymethyl)azetidin-3-yl)methoxy)-2-fluorobenzonitrile]"
13,0.303,"CC(=O)OCC1(COc2ccc(C#N)c(F)c2)CN(S(=O)(=O)c2ccc(Cl)cc2Cl)C1 [Compound 12, (3-((4-Cyano-3-fluorophenoxy)methyl)-1-((2,4-dichlorophenyl)sulfonyl)azetidin-3-yl)methyl acetate]"
14,0.0016,"C[C@H](O)CNCC1(COc2ccc(C#N)c(F)c2)CN(S(=O)(=O)c2ccccc2C#N)C1 [Compound 117, (S)-4-((1-((2-Cyanophenyl)sulfonyl)-3-(((2-hydroxypropyl)amino)methyl)azetidin-3-yl)methoxy)-2-fluorobenzonitrile]"
